# Measured values as given in patent US4632922A, “Oxomorpholinyl dimer and rescue of anthracycline and mitomycin C damage” (The United States of America as represented by the …, priority 1985, dated 1986).
# Columns and labels:
# [1] = test system: drug-induced skin necrosis; test: Protection by DHM3 against drug-induced skin necrosis in the swine model; assay type: in vivo; conditions: for Percent Reduction of Maximal Ulcer Size: DHM3 15 min later
# Experimental: (§1) DOX HCl (2.0 mg/ml) was administered intradermally (i.d.) with a 25 gauge needle inserted approximately 4 to 5 mm into the skin. Following the injection of 0.5, 0.75 or 1.0 ml (1.0, 1.5, or 2.0 mg, respectively) DOX solution, the syringe was removed from the hub leaving the needle in place. After the indicated time interval, 1.0 ml (10 mg) DHM3 was injected through the same needle and the needle was then removed. Control sites received 1.0 ml sterile water instead of DHM3. The injection sites were along the mid-lateral aspect of each side of the swine and were 4-5 cm apart (6-8 injection sites per side). One animal was used for a dose experiment where DOX, 0.5 ml/site was injected along one side and 1.0 ml/site was injected along the contralateral side. Fifteen minutes later, DHM3 or water was injected into alternating sites as described above. A second animal received DOX, 0.75 ml/site along both sides. DHM3 or water was injected into alternating sites at times varying from 5 to 120 minutes following DOX administration.
# In a separate study, equimolar amounts of several compounds used in experimental or clinical cancer chemotherapy were injected into pig skin using the same method described above. Paired injection sites were treated 15 minutes later with either H2 O or DHM3 in duplicate.
# (§2) All lesions were measured by a single observer with metric calipers three times weekly for two weeks, followed by weekly measurements thereafter. The areas of skin ulceration and induration were estimated by the product of the cross perpendicular diameters. The total toxicity of DOX-induced skin ulceration was determined by calculating the area under the ulceration-time curve (AUC) in mm^2 -days.
# swine skin = test: Intradermal DHM3 alone (control injections), tolerance and histology in swine; assay type: in vivo, miniature white swine
# Experimental: (§3) In order to produce anthracycline induced tissue damage, clinical grade doxorubicin (DOX) hydrochloride was obtained as a representative anthracycline chemical from the Drug Synthesis Branch, Developmental Therapeutics Program, National Cancer Institute. Each vial contained 10 mg DOX hydrochloride and 50 mg lactose which was reconstituted with 5.0 ml sterile 0.9% NaCl solution to give a final drug concentration of 2.0 mg/ml. DHM3 solution was prepared by dissolving 10 mg in ice-cold water which had been purged with N2 gas for 5 minutes. Dissolution was facilitated by brief sonication to give a final concentration of 10 mg/ml. The solution was kept cold (≈4° C.) and protected from air and light.
# (§4) Female weanling miniature white swine weighing approximately 12 kg were obtained from the Veterinary Resources Branch, National Institutes of Health. The development of this strain of swine has been described previously (Sachs, et al., Transplantation 22:559-567, 1976). Each animal was housed in a 6×4 ft metabolic cage and was fed standard NIH show chow, 1.5 lbs twice daily.
# as §1, with “DHM3 or water was injected into alternating sites at times varying from 5 to 120 minutes following DOX administration.” left out
# [2] = test system: DOX-induced skin ulceration; test: Rescue by DHM3 of DOX-induced skin necrosis (ulceration, induration) in swine; assay type: in vivo, miniature white swine
# Experimental: as §3, §4
# Each animal was anesthesized by intramuscular injections of ketamine, 20 mg/kg, xylazine, 20 mg/kg, and atropine, 1.0 mg. Following endotracheal intubation anesthesia was maintained with a mixture of nitrous oxide, halothane, and oxygen gas.
# as §1, §2
# In order to assess the extent of tissue injury following intradermal DOX or DHM3, incisional biopsies were performed on representative lesions 6 and 20 days following drug injection. These samples were placed in 10% buffered formalin and processed for examination by standard light microscopy (Pathco Inc., Potomac, MD.).
# [3] = Kinetics of reaction of DHM3 with daunorubicin in water solvent
# Experimental: A test similar to that described for the same reaction in methanol solvent (vide supra) was run. Oxomorpholinyl dimer DHM3 (1.38 mg, 4.37×10^-3 mmol) was dissolved in 0.5 ml of oxygen-free methanol and quickly transferred without delay into one compartment of the cell. The solvent was promptly removed under vacuum. Daunorubicin hydrochloride ([…]) was dissolved in 100 ml of an aqueous solution of Tris (24.2 mg) and Tris hydrochloride (31.6 mg) and 2.6 ml of this solution (4.18×10^-4 mmol of 6) was introduced into the other compartment of the cell. The sample was freeze-thaw degassed over three cycles as described above, sealed, and placed in a thermostatted cell holder at 10.0±0.1° C. for about 20 min prior to mixing. Full spectra between 320 and 800 nm were recorded every 10 sec for the first 125 sec, and then every 20 sec. From the absorbance change at 620 nm over the first 85 sec (50% reaction of daunorubicin), a non-linear least-squares treatment gave a first order rate constant for bond homolysis of DHM3 (k1) equal to 6×10^-4 sec^-1 and a first order rate constant for destruction of 7 (k2) equal to 2×10^-2 sec^-1. Treatment of the data obtained in the 164-225 sec interval gave k2 =2.8×10^-2 sec^-1.
# Thus, when a ten-fold excess of DHM3 is reacted with an oxygen-free 2×10^-4 M solution of 6 in buffered water (pH8) at 10° C., the absorbance of the solution at 618-620 nm, due to the tautomer 7, reaches its maximum after 125 sec and then decreases quickly, with an 80% decrease in 100 sec. Here again the formation and destruction of 7, as calculated from the data obtained in the first 85 sec of reaction, follows consecutive first order kinetics, first order in DHM3 and 7, with k1 =6×10^-4 sec^-1, k2 =2×10^-2 sec^-1 and ε7 =9600. Calculation of k2 from the absorbance data taken after 165 sec of reaction time, when only first order destruction of 7 is observed, gives a value of 2.8×10^-2 sec^-1.
# [4] = DHM3 10 mg 15 min after DOX 2.0 mg i.d.
compound,measurement,setting,value
"CC1(CO)COC(=O)C(C)(C2(C)NC(C)(CO)COC2=O)N1 (stereo not shown) [DHM3, bi(3,5-dimethyl-5-hydroxymethyl-2-oxomorpholin-3-yl)]",Percent Reduction of Maximal Ulcer Size,"[1]; against 4'-Epidoxorubicin, Exper. 4",51%
same,Percent Reduction of Maximal Ulcer Size,"[1]; against 4-Demethoxydaunorubicin, Exper. 4",79%
same,Percent Reduction of Maximal Ulcer Size,"[1]; against 5-Iminodaunorubicin, Exper. 3",53%
same,Percent Reduction of Maximal Ulcer Size,"[1]; against Aclarubicin, Exper. 4",46%
same,Percent Reduction of Maximal Ulcer Size,"[1]; against Adriamycin, Exper. 1",77%
same,Percent Reduction of Maximal Ulcer Size,"[1]; against Adriamycin, Exper. 2",40%
same,Percent Reduction of Maximal Ulcer Size,"[1]; against Daunorubicin, Exper. 2",39%
same,Percent Reduction of Maximal Ulcer Size,"[1]; against Menogaril, Exper. 4",61%
same,Percent Reduction of Maximal Ulcer Size,"[1]; against Mitomycin C, Exper. 3",58%
same,protection against drug-induced skin necrosis,[1]; against Mitoxantrone,no protection observed
same,protection against drug-induced skin necrosis,[1]; against Vinblastine,no protection observed
same,protection against drug-induced skin necrosis,[1]; against Vincristine,no protection observed
same,protection against tissue necrosis,[1]; several anthracycline analogs and mitomycin C,effective in all cases
same,protection against skin injury,[1]; vinca alkaloid and mitoxantrone,did not protect
same,tissue injury (histology),swine skin,did not cause any tissue injury except for mild upper dermis congestion
same,tolerance of control i.d. injections,swine skin,well tolerated
same,ulcer formation,swine skin,no ulcer formation occurred
same,extent of skin necrosis,[2]; [4],greatly reduced
same,reduction of peak area size of the ulcer,[2]; [4],80%
same,time to complete healing,"[2]; DHM3 10 mg 15 min after DOX 2.0 mg, control 7 weeks",≤ 5 weeks
same,AUC (total toxicity of skin ulceration),[2]; DHM3 10 mg i.d. 5 min after DOX 1.5 mg i.d.,960 mm^2 . days
same,AUC (total toxicity of skin ulceration),"[2]; DHM3 10 mg i.d. 15 min after DOX 1.0 mg i.d., mean of 3 lesions, p < .005",840 ± 420 mm^2 . days
same,AUC (total toxicity of skin ulceration),[2]; DHM3 10 mg i.d. 15 min after DOX 1.5 mg i.d.,2220 mm^2 . days
same,AUC (total toxicity of skin ulceration),"[2]; DHM3 10 mg i.d. 15 min after DOX 2.0 mg i.d., mean of 3 lesions, p < .001",1020 ± 420 mm^2 . days
same,AUC (total toxicity of skin ulceration),[2]; DHM3 10 mg i.d. 30 min after DOX 1.5 mg i.d.,3240 mm^2 . days
same,AUC (total toxicity of skin ulceration),[2]; DHM3 10 mg i.d. 60 min after DOX 1.5 mg i.d.,4020 mm^2 . days
same,AUC (total toxicity of skin ulceration),[2]; DHM3 10 mg i.d. 90 min after DOX 1.5 mg i.d.,5340 mm^2 . days
same,AUC (total toxicity of skin ulceration),[2]; DHM3 10 mg i.d. 120 min after DOX 1.5 mg i.d.,8400 mm^2 . days
same,protection against DOX injury,[2]; DHM3 5 min after DOX,Optimal protection
same,reduction of the size of surrounding induration,[2]; DHM3 after DOX,observed to parallel the ulcer measurements
same,color change of stained skin,[2]; DHM3 injected into DOX site,immediately changed to a rusty brown
same,reduction of DOX induced injury,"[2]; DOX 1.0 mg, compared with 2.0 mg",similar
same,protection against DOX injury,[2]; interval greater than 60 min,no protection is observed
same,protection against DOX injury,[2]; interval increased to 60 min,Progressively less protection
same,protection from skin necrosis (maximal ulcer area and time required for healing),[2]; up to 60 min after i.d. DOX,considerable protection
same,reactivity with daunorubicin compared with TM-3,[3]; DHM3 in water vs TM-3 in methanol,approximately the same reactivity
same,first order rate constant for bond homolysis of DHM3 (k1),"[3]; buffered water (pH8), 10.0±0.1° C., first 85 sec",0.0006 s⁻¹
